In brackets after ≈: the same amount, converted by molar mass. Counter-ions that a name gives are not always drawn. Like-named read-outs stand apart in the source and are kept apart here.
Columns and labels:
[1] = tested on: H5N1 avian influenza viruses CV strain; assay: animal or person; assay type: in vivo, H5N1 avian influenza virus; settings: for IC50: Influenza A virus
[2] = tested on: H5N1 avian influenza virus, WV strain; settings: in vivo, po
embryonated hen eggs = settings: in vivo
influenza virus = settings: in vivo, po
[3] = H5N1, read-out: IC50 against H5N1 avian influenza virus

SMILES	IC50 ([1]; H5N1, read-out: IC50 (drug concentration required to survive 50% embryo)) [mg/mL]	IC50 [1, 3] [mg/mL]	protection rate in mice [2] [%]	IC50 against H5N1 avian influenza virus ([1]; in vivo) [mg/mL]	LD50 of TG21 to embryonated hen eggs (embryonated hen eggs; chicken (hen) embryo) [mg/mL]	dose below which no side-effect was found (embryonated hen eggs; chicken (hen) embryo)	toxicity at high doses (embryonated hen eggs)	time until symptoms associated with the influenza infection had disappeared (influenza virus) [h]
CCOC(=O)C1=C[C@@H](OC(CC)CC)[C@H](NC(C)=O)[C@@H](N)C1 [TAMIFLU®, oseltamivir phosphate, reference compound]	25.1	19.4	60	–	–	–	–	–
NCCS [TG21, Cysteamine]	–	17.5 (≈ 227 mM)	–	16.1 (≈ 209 mM)	32.1	below 12.5 mg/mL	some toxicity was detected	–
NCCS [cysteamine hydrochloride]	–	–	–	–	–	–	–	≤ 24
